Laboratory results published in paper PMC2910436 (Cell, 2010).

Tests used:
BDH2 (DHRS6) = BDH2 (DHRS6) (Mus musculus, UniProt Q8JZV9); assay: NADH formation at […] nm; assay type: biochemical; conditions: co-substrate 2,3-diDHBA
EntA = EntA (Escherichia coli, UniProt P15047); assay: NADH formation at […] nm; assay type: biochemical; conditions: co-substrate 2,3-diDHBA
Chain of EntA (P15047 whole entry): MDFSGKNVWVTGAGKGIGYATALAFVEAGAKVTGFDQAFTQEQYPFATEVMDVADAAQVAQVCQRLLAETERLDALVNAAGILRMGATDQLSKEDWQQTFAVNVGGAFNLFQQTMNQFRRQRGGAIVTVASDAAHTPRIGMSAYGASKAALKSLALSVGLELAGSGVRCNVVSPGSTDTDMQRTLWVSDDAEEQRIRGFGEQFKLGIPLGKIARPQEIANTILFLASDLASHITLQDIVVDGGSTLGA

Chain of BDH2 (DHRS6) (Q8JZV9 whole entry): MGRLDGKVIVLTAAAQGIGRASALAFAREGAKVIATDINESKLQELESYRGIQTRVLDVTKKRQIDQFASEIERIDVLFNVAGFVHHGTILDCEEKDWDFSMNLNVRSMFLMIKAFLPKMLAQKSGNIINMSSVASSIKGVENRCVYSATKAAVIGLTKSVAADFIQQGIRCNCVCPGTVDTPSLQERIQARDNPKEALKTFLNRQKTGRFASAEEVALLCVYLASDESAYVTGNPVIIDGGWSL

Question: Which results are given for `NC(=O)c1ccc[n+]([C@@H]2O[C@H](COP(=O)(O)OP(=O)(O)OC[C@H]3O[C@@H](n4cnc5c(N)ncnc54)[C@H](O)[C@@H]3O)[C@@H](O)[C@H]2O)c1` [NAD^+]?
Answer: NADH formation at 340 nm (BDH2 (DHRS6)): wild-type EntA and BDH2 proteins, but not their mutant derivatives, catalyzed the conversion of NAD; NADH formation at 340 nm (EntA): wild-type EntA and BDH2 proteins, but not their mutant derivatives, catalyzed the conversion of NAD
